Data on 1 molecule can be found in publication PMC12051620, “Molecular basis underlying the specificity of an antagonist AA92593 for mammalian melanopsins” (The Journal of Biological Chemistry, 2025).

The structures appear in SMILES notation. pIC50: −log10 of the molar value.

Experiment [1] has as its target T1, human melanopsin (Homo sapiens, UniProt Q9UHM6).
T1 sequence (Q9UHM6 1-384 limits assumed): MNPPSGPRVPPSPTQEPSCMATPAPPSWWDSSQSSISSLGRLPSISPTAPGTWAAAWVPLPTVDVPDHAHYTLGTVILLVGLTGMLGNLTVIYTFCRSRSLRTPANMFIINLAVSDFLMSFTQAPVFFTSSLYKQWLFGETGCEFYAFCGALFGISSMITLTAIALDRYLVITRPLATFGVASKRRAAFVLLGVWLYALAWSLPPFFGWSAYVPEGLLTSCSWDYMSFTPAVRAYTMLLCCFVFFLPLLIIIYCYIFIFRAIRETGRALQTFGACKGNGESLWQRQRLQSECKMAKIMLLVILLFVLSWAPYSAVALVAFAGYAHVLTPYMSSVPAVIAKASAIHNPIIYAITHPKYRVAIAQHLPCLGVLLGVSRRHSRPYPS
More on the design: the C-terminal amino acid residues (94, 140, 200, 214, 296, and 308 residues); expressed in transfected cells; method as in PMID 23974117. Particulars: CHO cells; calcium imaging; 9-cis-retinal incubation several minutes; read-out: IC50 reported in the previous study; cited from earlier work.

In experiment [2] the test system is lanceolatum melanopsin WT. The experiment is described as follows: GsX GloSensor assay with Gsα/q11. It is filed as cell-based, Branchiostoma lanceolatum. Conditions: 16.7 μM AA92593, COS-1 cells. An excerpt: Non-mammalian-type melanopsins were successfully converted into AA92593-susceptible types by introducing Phe-94^2.61/Ser-188^ECL2/Ser-269^6.52 or Phe-207^5.42 (Fig. 6). We attempted to extend the functional conversion targets to invertebrate melanopsin (see Fig. S2). […] We assessed the susceptibility of belcheri and lanceolatum melanopsins to AA92593 using the GsX GloSensor assay with Gsα/q11. In the absence of AA92593, the belcheri melanopsin produced smaller light-dependent cAMP responses than the other melanopsins assessed in this study (Fig. 7A), whereas the lanceolatum melanopsin produced robust cAMP responses upon light illumination (Fig. 7B). […] On the other hand, responses by the lanceolatum melanopsin were insensitive to the antagonist (Fig. 7B), similar to non-mammalian-type melanopsins (Fig. 6, A and D). […]
For GloSensor assay, opsins, GloSensor assay sensor (coded by pGlo-22F), and NanoBiT-tagged G proteins were transiently expressed in COS-1 cells (kindly provided from Dr David Farrens, Oregon Health and Science University) using PEI as described previously ([24], [52]). […] For GFP-fluorescence microscopy, a 35-mm cell culture dish (IWAKI) was transfected with 2 μg melanopsin-GFP plasmid and 8 μg PEI in 400 μl Opti-mem and 1.2 ml D-MEM. […]

The term pIC50 denotes the negative decadic logarithm of the IC50, by convention in mol/L. In the case of `COc1ccc(S(=O)(=O)N2CCCCC2)cc1C` [AA92593], the pIC50 in experiment [1] was 6.18. Moreover, in experiment [2], the “sensitivity of light-induced responses to the antagonist” value was “insensitive”.
